Patent publication US20180214691A1, “NEUROMODULATION DEVICE” (GALVANI BIOELECTRONICS LIMITED, priority 2015, published 2018)
Entries after “also recorded” stand apart in the source; their conditions may differ.

How the values were obtained:
cats = test: Cat PGE2 model of bladder dysfunction; assay type: in vivo; settings: PGE2 cats versus controls (each cat before PGE2 installation is its own control); N=3
Excerpt: Pelvic nerve stimulation is also effective in other models of OAB.

rats = test: Cystometrograms in the rat PGE2 model of bladder dysfunction; assay type: in vivo
Excerpt: In the following examples, two accepted animal models of bladder dysfunction were used. The first was a PGE2 (prostoglandin E2) model, in which installation of PGE2 into rats induces a hyperactive bladder response.
Animal models of bladder dysfunction need to take into account the fact that rodent (e.g. rat) urination behaviour differs from that of humans. However, the following parameters (as defined in Andersson et al. Neurourology and Urodynamics, 30: 636-646 (2011), which is incorporated herein by reference) are accepted measures against which therapeutic interventions can be assessed (adapted from Andersson et al.): • (a) Baseline pressure: minimum pressure between two micturitions. This parameter is important as an internal control for the procedure. • (b) Intermicturition pressure: mean pressure between two micturitions. The IMP is related to the occurrence of non-voiding contractions (NVCs). The more frequent and with higher amplitude the NVCs, the higher the IMP will be. • (c) Threshold pressure: intravesical pressure immediately before micturition. • (d) Maximum pressure: maximum bladder pressure during a micturition cycle. Also known as peak pressure, maximum voiding pressure, or maximum intravesical pressure. It should be noted that this pressure is not identical with the micturition pressure. The true micturition pressure is the pressure at which fluid starts to flow. • (e) Spontaneous activity (SA) or mean intermicturition oscillatory pressure: intermicturition pressure minus baseline pressure. This parameter is an approximate index of spontaneous bladder contractions between micturitions. SA will increase if there are frequent NVCs between micturitions. • (f) Non-voiding contractions (NVCs): defined as increases in intravesical pressure during cystometry, not associated with release of fluid. […] Since threshold pressure is the pressure at onset of micturition, subtraction of baseline pressure from threshold pressure gives the pressure variation between micturitions. • (l) Voiding efficiency: the voided volume expressed as a percentage of bladder capacity (i.e. voided volume/bladder capacity*100) • (m) External urethral sphincter electromyography: electrodes are placed into the external urethral sphincter and electromyography is recorded during bladder filling and voiding. A number of the parameters above were measured for both PGE2 and SHR rats.
A PE-90 polyethylene catheter was inserted into the bladder lumen through a small incision in the apex of the bladder dome. The bladder catheter was connected an infusion pump and a pressure transducer to measure bladder pressure. Additionally, two PFA-coated platinum-iridium wires (0.0055 inch diameter) were bilaterally inserted percutaneously into the external urethral sphincter (EUS) to record EUS EMG. Alternatively, a bipolar paddle electrode was placed intra-abdominally between the external urethral sphincter (EUS) and pubic symphysis (platinum-iridium contacts facing the urethra) to record EUS EMG.
At the start of an experiment, the bladder was continuously filled with physiological saline at room temperature using an infusion pump with an open urethra for 45 minutes to allow recovery post-surgery. The bladder was subsequently emptied, and CMG's were recorded. A single CMG event was characterized by a quiet period, a filling period, and a voiding period at the end of the voiding event, the infusion pump was turned off. The bladder was then emptied and subsequent CMG's were conducted.
PGE2: Control CMG's were conducted under saline infusion. After 2-3 subsequent control CMG events, the bladder was then infused continuously with PGE2 solution for 1 hour to allow for the bladder to reach drug related steady state. Multiple CMG's were then taken.
CMG parameters recorded were previously described by Andersson et al. as outlined above in example 1: model validation. […]

SMILES: CCCCC[C@H](O)/C=C/[C@H]1[C@H](O)CC(=O)[C@@H]1C/C=C\CCCC(=O)O [PGE2, prostoglandin E2]
- bladder capacity (cats): dose dependent reduction
- NVC duration (rats; PGE2 rats versus controls): decreased; also recorded: reduction
- bladder capacity (rats; PGE2 rats versus controls): reduction
- maximum bladder pressure (rats; PGE2 rats versus controls): reduction
- threshold bladder pressure (rats; PGE2 rats versus controls): reduction
- Δbladder pressure (threshold minus baseline bladder pressure) (rats; PGE2 rats versus controls): reduction
- voiding efficiency (rats; PGE2 rats versus controls (each rat before PGE2 installation is its own control), bladder infused with PGE2 solution for 1 hour): decreased voiding efficiency; also recorded: statistically non-significant reduction
- external urethral sphincter (EUS) EMG activity (rats; PGE2 rats versus controls, filling and voiding phases of a CMG event): abnormal; also recorded: increase
- non-voiding contraction (NVC) magnitude (bladder pressure area under the curve) (rats; PGE2 rats versus controls, filling phase): decreased magnitude; also recorded: reduction
